Results: patent US20150204881A1, “Biomarkers For Diagnosis Of Diabetes And Monitoring Of Anti-Diabetic Therapy” (Sumitomo Bakelite Co., Ltd., priority 2012, published 2015)

Experiments:
db/db mice [1] = assay: HbA1c in treated db/db mice; type: in vivo, mouse
db/db mice [2] = assay: Plasma N-glycan profiling (MALDI-TOF MS) in insulin detemir- vs vehicle-treated db/db mice; type: in vivo, mouse
Description: A 10 μl aliquot of each plasma sample was spiked with internal standard (700 pmol) and analyzed for N-linked glycans using Ezose Sciences' GLYCANMAP methodology. The samples were denatured and then digested with trypsin, followed by heat-inactivation. The mixture was then treated with PNGase F. After enzymatic release of N-glycans, aliquots were subjected to solid-phase processing using BLOTGLYCO beads. Following capture on the beads, the sialic acid residues were methyl esterified. The glycans were simultaneously released from the beads and labeled, and then aliquots of the recovered materials were spotted onto a MALDI target plate. Steps from initial aliquoting to spotting on the MALDI plate were performed using the fully automated SWEETBLOT technology. MALDI-TOF MS analysis was performed on an ultraflex III mass spectrometer (Bruker Daltonics) in the positive-ion, reflector mode. Each sample from the BLOTGLYCO bead processing step was spotted in quadruplicate, and spectra were obtained in an automated manner using the AutoXecute feature in flexControl software (Bruker Daltonics). Proposed glycan structures were assigned based on molecular weight. These methods have been described previously by Nishimura, Furukawa and Miura (Nishimura et al., Angew Chem. Int. Ed. Engl., 44: 91-96 (2004); Furukawa et al., Anal. Chem., 80: 1094-1101 (2008); Miura et al., Chem.-A Eur. J, 13: 4797-4804 (2007)). Alternatively, standard fluorescent HPLC or capillary electrophoresis methods with 2-AA, 2-AB, or APTS labeling can be used to monitor the glycan levels and changes in glycan patterns.
A further study was undertaken to evaluate the performance of candidate biomarkers discovered using rosiglitazone in mice treated with a diabetes drug having a different mechanism of action. The candidate biomarkers that were identified in Example 1 were evaluated in db/db mice treated with insulin detemir and vehicle.
Plasma samples were analyzed from ten db/db mice at baseline (0 days) and from 20 db/db mice (ten vehicle and ten insulin detemir-treated) at 7, 14, and 21 days. Sample preparation and analysis followed the protocol described in Example 1.
Concentrations of individual glycans in insulin detemir- and vehicle-treated db/db mice were compared at each time-point using the Student's t-test. N-glycans which yielded p-values <0.05 in this analysis were considered significant. Time-dependence was also evaluated for each of the candidate biomarkers by comparing each time-point to baseline.

[3] = db/db mice treated with insulin detemir vs vehicle
[4] = plasma, db/db mice vs vehicle, 7, 14, 21 days

| Compound | Changes in HbA1c (db/db mice [1]; insulin-treated db/db mice, compared with rosiglitazone) | Changes in Glycan 540020 (db/db mice [2]; [3]) | Changes in O-acetylated N-glycans (db/db mice [2]; [3]) | Changes in fucosylated N-glycans (db/db mice [2]; [3]) | High mannose glycans (520000, 620000, 720000, 820000) with insulin detemir treatment (db/db mice [2]; db/db mice vs vehicle, significant at Day 7, 14 and 21, lower in magnitude than with rosiglitazone) | Hybrid glycans (430010, 530010, 630010) vs vehicle-treated controls (db/db mice [2]; db/db mice, as early as Day 7) | Direction of Change with Insulin Detemir: High Mannose glycan 520000 (db/db mice [2]; [4]) | Direction of Change with Insulin Detemir: High Mannose glycan 620000 (db/db mice [2]; [4]) | Direction of Change with Insulin Detemir: High Mannose glycan 720000 (db/db mice [2]; [4]) | Direction of Change with Insulin Detemir: High Mannose glycan 820000 (db/db mice [2]; [4]) | Direction of Change with Insulin Detemir: Hybrid glycan 430010 (db/db mice [2]; [4]) | Direction of Change with Insulin Detemir: Hybrid glycan 530010 (db/db mice [2]; [4]) | Direction of Change with Insulin Detemir: Hybrid glycan 630010 (db/db mice [2]; [4]) | Time until HbA1c difference reached p<0.001 significance (db/db mice [1]; first rosiglitazone study, db/db mice vs vehicle) [days] |
| --- | --- | --- | --- | --- | --- | --- | --- | --- | --- | --- | --- | --- | --- | --- |
| insulin detemir | more subtle changes | no significant changes | no significant changes | no significant changes | lower levels | significant decreases | Decreased | Decreased | Decreased | Decreased | Decreased | Decreased | Decreased | – |
| CN(CCOc1ccc(CC2SC(=O)NC2=O)cc1)c1ccccn1 (centres unmarked) [Rosiglitazone] | – | – | – | – | – | – | – | – | – | – | – | – | – | 21 |
